Assay results from patent publication US20060052451A1, “Method” (priority 2002, published 2006).
pIC50, pKd: −log10 of the molar value. Like-named read-outs stand apart in the source and are kept apart here.

Assays:
[1] = test system: PC3 cells (human prostate cancer-derived); assay: SRB growth inhibition assay, PC3 cells; format: cell-based
Procedure: (§1) The effect of perfluorinated compounds on the inhibition of tumour cell growth was assessed iii vitro using three human tumour-derived cell lines. Cancer cell lines were tested using the sulphorhodamine B (SRB) assay (which measures cellular protein and is directly related to cell number), which is utilised by the […] to screen anti-cancer agents.
(§2) HT-29 cells (human colon tumour-derived), MCF7 cells (human breast cancer-derived) and PC3 cells (human prostate cancer-derived) were harvested and diluted (to 5×10^4 cells per ml, 1×10^5 cells per ml and 7.5×10^4 cells per ml respectively) in RPMI 1640 medium containing 5% FBS, 2 mM glutamine and. 50 μg/ml gentamicin. 100 μl of cell suspension per well was added to 96 well plates and allowed to attach overnight. Cells were exposed to test compounds dissolved in DMSO in 100 μl of medium to give final drug concentrations of 0, 0.3, 1, 3, 10, 30, 100, 300, 1000 and 3000 μM (and DMSO at 0.25%). (n=6 for each drug concentration). After 48 hours, cells were fixed in 10% trichloroacetic acid (TCA) at 4° C. for 1-2 hours then washed using water and subsequently air-dried. 100 μl SRB solution (0.4%) in 1% Acetic Acid was added to each well, and plates were incubated at room temperature for 10 minutes. Unbound dye was removed by washing with 1% acetic acid. Plates were air-dried and bound stain was solubilised in 10 mM Tris base and the absorbance read at 520 nm.

[2] = test system: three human tumour-derived cell lines (HT-29, MCF7, PC3); assay: SRB growth inhibition, summary over the three human tumour cell lines; format: cell-based; conditions: over HT-29, MCF7 and PC3
Procedure: as §1, §2

[3] = test system: HT-29 cells (human colon tumour-derived); assay: SRB growth inhibition assay, HT-29 cells; format: cell-based; conditions: 48 hours exposure
Procedure: as §1, §2

PPAR delta = molecular target: T1, PPAR delta (Homo sapiens, UniProt Q03181); assay: PPAR delta transactivation assay in COS-1 cells; format: cell-based; design: Fold activation of PPAR delta: dose or concentration left out as unconfirmed; conditions: for Fold activation of PPAR delta: mean±SD n=3; for Inhibition of activation of PPAR delta (by a factor of): transactivation assay
T1 construct: 25 ng of vector DNA carrying PPAR alpha, delta or gamma; expressed in transfected cells; host or cells: COS-1 (African green monkey kidney cells)
T1 sequence (Q03181 1-441): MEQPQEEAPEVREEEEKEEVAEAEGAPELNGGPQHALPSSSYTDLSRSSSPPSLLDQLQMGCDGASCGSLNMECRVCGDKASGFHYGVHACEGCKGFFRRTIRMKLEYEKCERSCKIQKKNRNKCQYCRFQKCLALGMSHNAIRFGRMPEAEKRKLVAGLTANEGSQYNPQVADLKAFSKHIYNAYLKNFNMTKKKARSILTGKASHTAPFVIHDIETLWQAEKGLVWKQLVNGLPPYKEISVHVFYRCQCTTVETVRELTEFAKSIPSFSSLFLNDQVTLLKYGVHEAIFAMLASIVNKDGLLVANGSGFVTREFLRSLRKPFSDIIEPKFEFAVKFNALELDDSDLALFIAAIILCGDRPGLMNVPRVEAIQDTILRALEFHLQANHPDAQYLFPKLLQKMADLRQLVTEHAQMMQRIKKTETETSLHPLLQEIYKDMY

[4] = 7-day oral gavage study, metabolic parameters, body weight and food consumption in CR SD rats; format: in vivo, rat; conditions: for Cholesterol (plasma) / Glucose (plasma) / Insulin (plasma) / Triglycerides (plasma): n=5; for Bodyweight change: continued till end of treatment
Procedure: Two groups (n=5) of CR SD rats (approximately 300 g) were treated with 2 dose levels of perfluorinated compounds (15 and 25 mg/kg/day body weight). Animals were administered test substances, dissolved in corn oil, by oral gavage, daily for 7 days. One group of 20 CR SD rays was also treated with vehicle (corn oil) alone. Body weight and food consumption were monitored daily.
Twenty-four hours after the last dose the animals were killed by an increasing concentration of carbon dioxide. Blood was collected by cardiac puncture and plasma was prepared and stored at −70° C. until analysed.
Plasma was analysed for triglycerides, cholesterol, and glucose, using kits purchased from Sigma. Concentrations of plasma insulin were determined using a commercially available enzyme-immunoassay-based kit from Amersham Biosciences. All assays were carried out as specified by the manufacturer.

[5] = molecular target: T2, human PPAR-gamma ligand binding domain (Homo sapiens, UniProt P37231); assay: PPAR gamma ligand binding (displacement of cis-parinaric acid)
T2 sequence (P37231 202-505): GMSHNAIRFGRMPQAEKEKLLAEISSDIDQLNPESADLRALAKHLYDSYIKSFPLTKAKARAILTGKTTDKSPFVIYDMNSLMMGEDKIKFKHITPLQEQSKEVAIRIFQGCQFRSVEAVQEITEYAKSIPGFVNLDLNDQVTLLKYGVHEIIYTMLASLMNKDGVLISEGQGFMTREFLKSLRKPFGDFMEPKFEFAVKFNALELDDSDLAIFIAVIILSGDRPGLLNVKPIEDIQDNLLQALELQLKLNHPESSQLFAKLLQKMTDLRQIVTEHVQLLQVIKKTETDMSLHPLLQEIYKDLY

[6] = molecular target: T3, human PPAR-alpha ligand binding domain (Homo sapiens, UniProt Q07869); assay: PPAR alpha ligand binding (displacement of DAUDA); conditions: for pKd: DAUDA displacement
T3 sequence (Q07869 179-468): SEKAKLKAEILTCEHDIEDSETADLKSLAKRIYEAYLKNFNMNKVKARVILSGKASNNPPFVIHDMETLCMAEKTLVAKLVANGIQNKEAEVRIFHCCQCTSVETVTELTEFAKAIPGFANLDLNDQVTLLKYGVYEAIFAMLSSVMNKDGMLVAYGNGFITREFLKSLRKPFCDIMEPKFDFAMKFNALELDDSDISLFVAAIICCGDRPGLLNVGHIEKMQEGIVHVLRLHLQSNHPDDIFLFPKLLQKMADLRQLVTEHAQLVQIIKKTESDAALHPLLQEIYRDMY

PPAR gamma = molecular target: T4, PPAR gamma (Homo sapiens, UniProt P37231); assay: PPAR gamma transactivation assay in COS-1 cells; format: cell-based
T4 construct: 25 ng of vector DNA carrying PPAR alpha, delta or gamma; expressed in transfected cells; host or cells: COS-1 (African green monkey kidney cells)
T4 sequence (P37231 1-505): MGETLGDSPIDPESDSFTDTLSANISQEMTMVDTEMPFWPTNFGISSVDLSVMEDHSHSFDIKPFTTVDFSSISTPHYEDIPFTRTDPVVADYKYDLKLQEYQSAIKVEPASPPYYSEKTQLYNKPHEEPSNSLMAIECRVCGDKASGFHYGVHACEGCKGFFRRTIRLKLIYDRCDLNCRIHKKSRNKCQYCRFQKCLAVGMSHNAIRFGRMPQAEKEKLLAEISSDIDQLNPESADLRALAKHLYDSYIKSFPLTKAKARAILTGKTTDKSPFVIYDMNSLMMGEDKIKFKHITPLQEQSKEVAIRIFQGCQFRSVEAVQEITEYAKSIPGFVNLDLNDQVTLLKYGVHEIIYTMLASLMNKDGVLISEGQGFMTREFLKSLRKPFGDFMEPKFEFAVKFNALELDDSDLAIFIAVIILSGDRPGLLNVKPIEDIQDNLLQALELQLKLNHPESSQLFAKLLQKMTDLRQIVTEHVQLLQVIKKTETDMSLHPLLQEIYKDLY

[7] = test system: MCF7 cells (human breast cancer-derived); assay: SRB growth inhibition assay, MCF7 cells; format: cell-based; conditions: 48 hours exposure
Procedure: as §1, §2

[8] = 21-day diet study, bodyweights of SD rats; format: in vivo, rat; conditions: 300 ppm in diet, 21 days
Procedure: This experiment investigated the effect of compounds of different % linearity on body weight over a longer study period.
The diet study consisted of one control group of 4 male animals and 4 test groups of 4 male animals (as specified earlier in this Example). Animals received powdered RM1 diet alone, or RM1 diet containing 300 ppm XEN1001 or XEN1002, ad libitum for the duration of the study. Bodyweights were measured daily for 21 days.

[9] = Plasma levels of PFOA after 11 days oral dosing in SD rats (LC/MS/MS); format: in vivo, rat; conditions: 25 mg/kg oral daily for 11 days, 24 hours after final administration
Procedure: The study consisted of one control group of 8 male CD Sprague Dawley rats (8-10-weeks old; obtained from Harlan, UK) and 4 test groups that contained 4 rats. Animals received powdered RM1 diet ad libitum for the duration of the study. […] All chemicals were dissolved in Mazola corn oil (at 2.5 mg/ml) and test compounds were administered at 10 ml/kg bodyweight. Control animal received Mazola corn oil only. All animals were sacrificed after 11 days. Animals were killed by exposure to rising concentrations of CO2, and blood was harvested into lithium/heparin tubes for plasma.
Rat plasma samples were denatured by adding acetonitrile, and the amount of perfluorooctanoic acid (PFOA) present was determined by LC/MS/MS.

[10] = Homo sapiens, PC-3, 48 hours exposure
[11] = 15 mg/kg/day oral gavage 7 days
[12] = 25 mg/kg/day oral gavage 7 days
[13] = at 10 μM (maximal activation by test compound), value in parenthesis = positive control at 10 μM

Row | Structure (SMILES) | pIC50 [1, 10] | pIC50 ([2]; Homo sapiens) | pIC50 ([3]; Homo sapiens, HT-29, 48 h) | Fold activation of PPAR delta (PPAR delta) | Inhibition of activation of PPAR delta (by a factor of) (PPAR delta) | Cholesterol (plasma) [4, 11] | Glucose (plasma) [4, 11] | Insulin (plasma) [4, 11] | Triglycerides (plasma) [4, 11] | Plasma insulin, % of control values ([4]; 25 mg/kg) | Cholesterol (plasma) [4, 12] | Glucose (plasma) [4, 12] | Insulin (plasma) [4, 12] | Triglycerides (plasma) [4, 12] | pKd [5] | Reduction in binding affinity for PPAR gamma compared to PFOA [5] | Reduction in binding affinity for PPAR alpha compared to PFOA [6] | Fold activation of PPAR gamma (PPAR gamma; [13]) | pIC50 ([7]; Homo sapiens, MCF7, 48 h) | Plasma concentration of PFOA (free acid) [9] | also measured
1 | O=C(O)C(F)(F)C(F)(F)C(F)(F)C(F)(F)F [PFPenA, Perfluoropentanoic acid] | 2.58 | ~2.52 | < 2.52 | 0.45 ± 0.04 fold | 2.2 | 1.83 ± 0.41 mmol/L | 16.22 ± 1.29 mmol/L | 124.7 ± 126.3 ng/mL | 1.24 ± 0.04 mmol/L | 33.9% | 1.67 ± 0.20 mmol/L | 16.67 ± 0.93 mmol/L | 62.6 ± 68.26 ng/mL | 1.07 ± 0.37 mmol/L | 4.77 | approximately 50 fold | 10 fold | 5.07 ± 2.29 fold | < 2.52 |  | pKd ([6]; PPAR Receptor Binding Kd Alpha (apparent Kd)): 4.21
2 | N.O=C(O)C(F)(F)C(F)(F)C(F)(F)C(F)(F)C(F)(F)C(F)(F)C(F)(F)F [XEN1001, Ammoniumperfluorooctanoate] |  |  |  |  |  |  |  |  |  |  |  |  |  |  |  |  |  |  |  | equimolar concentrations of PFOA | Lost bodyweight up to day [8]: 7 days
3 | COC(=O)C(F)(F)C(F)(F)C(F)(F)C(F)(F)C(F)(F)C(F)(F)C(F)(F)F [MPOA, Methyl perfluorooctanoate] | < 2.52 | ~2.52 | < 2.52 | 1.51 ± 0.31 fold |  | 1.17 ± 0.31 mmol/L | 11.48 ± 1.27 mmol/L | 4.87 ± 2.611 ng/mL | 0.28 ± 0.08 mmol/L | 15.6% | 0.73 ± 0.23 mmol/L | 12.99 ± 2.07 mmol/L | 28.74 ± 17.22 ng/mL | 0.6 ± 0.89 mmol/L |  |  |  |  | < 2.56 | equimolar concentrations of PFOA | Plasma insulin, % of control values ([4]; 15 mg/kg): 2.6%; Weight loss ([4]; 15 mg/kg, 7 days): 8.2%; Plasma cholesterol, % of control values ([4]; 25 mg/kg): 36.7%; Plasma triglycerides, % of control values ([4]; 25 mg/kg): 33.7%; Bodyweight lost ([4]; 25 mg/kg, after day 6, terminated early): 8%; Bodyweight change ([4]; 15 and 25 mg/kg/day): lost bodyweight after day 3; Food consumption ([4]; 15 and 25 mg/kg/day, versus control): dose-related, decreases in food consumption; Plasma glucose, % of control values ([4]; dose not stated): 78.6%; Fold activation of PPAR gamma (PPAR gamma; at 1 mM, mean±SD n=3): 2.92 ± 0.12 fold
4 | O=C(O)C(F)(F)C(F)(F)C(F)(F)C(F)(F)C(F)(F)C(F)(F)F [PFHA, Perfluoroheptanoic acid] | 3.49 | 3.22 to 3.70 | 3.43 | 0.45 ± 0.28 fold | 2.2 | 1.50 ± 0.23 mmol/L | 16.43 ± 2.59 mmol/L | 114.2 ± 90.06 ng/mL | 0.94 ± 0.20 mmol/L |  | 1.46 ± 0.17 mmol/L | 18.15 ± 2.78 mmol/L | 165.1 ± 114.4 ng/mL | 0.75 ± 0.26 mmol/L | 4.00 |  | 30 fold | 3.43 ± 2.62 fold | 3.24 |  | 
5 | O=C(O)C(F)(F)C(F)(F)F [PFPA, Perfluropropionic acid] |  |  |  | 0.63 ± 0.25 fold | 1.6 | 1.28 ± 0.10 mmol/L | 15.46 ± 1.13 mmol/L | 129 ± 36.05 ng/mL | 1.02 ± 0.38 mmol/L |  | 1.39 ± 0.39 mmol/L | 14.97 ± 1.29 mmol/L | 179.7 ± 177.1 ng/mL | 0.95 ± 0.17 mmol/L |  | ~2 fold |  |  |  |  | pIC50 ([1]; 48 hours exposure): < 2.52; pIC50 [2]: ~2.52; pIC50 [3]: < 2.52; Bodyweight change ([4]; 15 and 25 mg/kg/day): lost bodyweight after day 3; pKd ([5]; read-out: PPAR Receptor Binding Kd Gamma (apparent Kd), cis-parinaric acid displacement): 6.22; pKd ([6]; read-out: PPAR Receptor Binding Kd Alpha (apparent Kd)): 5.70; Fold activation of PPAR gamma (PPAR gamma; at 1 mM, mean±SD n=3): 1.86 ± 0.81 fold; pIC50 [7]: < 2.52
